Results on 16 molecules are retold here after PubChem BioAssay (NCI).

Among the test systems are DMS 114 small cell lung; DMS 273 small cell lung; LXFL 529 NSCLC; M19-MEL melanoma; RXF-631 renal; SNB-78 CNS; XF 498 CNS; DLD-1 colon; P388 leukemia; P388/ADR leukemia; SN12K1 renal.
Holding throughout (assay): NCI tumour cell line growth inhibition, 48 h

Several values for one entry are separate records, joined by “and”; a condition that tells them apart may be missing. Equal entries are not always repeated.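 Exposure lasted 48 hours, with cells grown in 96-well plates and compounds tested at five concentrations. Abbreviation: GI50, concentration required for 50% inhibition of growth. TGI: total growth inhibition.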

Take `CN(C)CC(/C(Cc1ccccc1)=N\NC(=O)C[n+]1ccccc1)c1ccccc1` (stereo unspecified): the TGI in the assay with DMS 114 small cell lung, in the assay on DMS 273 small cell lung, with LXFL 529 NSCLC, with M19-MEL melanoma, in the assay on RXF-631 renal and in the assay on SNB-78 CNS was above 100 µM in each case. The TGI with XF 498 CNS was above 100 µM.

Consider `[O-]/[N+](=C\c1ccccc1)[C@H](COCc1ccccc1)c1ccccc1`, for which the TGI in the assay on DLD-1 colon, with DMS 114 small cell lung, with DMS 273 small cell lung, in the assay on LXFL 529 NSCLC, in the assay on M19-MEL melanoma and with RXF-631 renal was above 100 µM in each case. Further, the TGI in the assay with SNB-78 CNS and in the assay on XF 498 CNS was above 100 µM in each case.

For the molecule `C1=C(c2ccccc2)CN(c2ccccc2)OC1`, the TGI in the assay on DLD-1 colon, in the assay on DMS 273 small cell lung, in the assay on LXFL 529 NSCLC, in the assay on M19-MEL melanoma, in the assay with SNB-78 CNS and with XF 498 CNS was above 100 µM in each case.

On to `CCOc1ccc2nc(NC(=O)C(=O)C(C(=O)c3ccccc3-c3ccccc3)C3OC(=O)c4ccccc43)sc2c1` (stereo unspecified), for which the TGI in the assay on DLD-1 colon is above 100 µM; in the assay with DMS 114 small cell lung, 35 µM; in the assay on DMS 273 small cell lung it was above 100 µM; in the assay with LXFL 529 NSCLC it was 41.1 µM; in the assay on M19-MEL melanoma it was 44.2 µM; in the assay with SNB-78 CNS, above 100 µM. The molecule also yielded a TGI in the assay with XF 498 CNS of 49.1 µM.

As for `Cc1ccc(S(=O)(=O)N/N=C/c2oc(-c3cccc([N+](=O)[O-])c3)c(-c3cccc([N+](=O)[O-])c3)c2[N+](=O)[O-])cc1`, the TGI in the assay with DLD-1 colon, in the assay with LXFL 529 NSCLC, with RXF-631 renal and in the assay with XF 498 CNS was above 100 µM throughout.

Take `CC(=O)OCC1OC(Nc2[nH]c(=O)n(C)c(=O)c2-c2csc(N)n2)C(OC(C)=O)C(OC(C)=O)C1OC(C)=O` (stereo unspecified): the TGI with DLD-1 colon, in the assay with DMS 114 small cell lung, in the assay on LXFL 529 NSCLC, with M19-MEL melanoma, in the assay on RXF-631 renal and in the assay with SNB-78 CNS was above 100 µM each time.

With `OCCOc1ccc(-c2cc(-c3ccccn3)nc(-c3ccccn3)c2)cc1`, the TGI in the assay with DLD-1 colon is above 100 µM; in the assay on DMS 114 small cell lung, 1.93 µM; in the assay on LXFL 529 NSCLC, above 100 µM; in the assay on M19-MEL melanoma, 0.593 µM; in the assay on RXF-631 renal, above 100 µM; in the assay with SNB-78 CNS it was above 100 µM.

As to `CCN(CC)CCNC(=O)c1ccccc1NC(=O)C(=O)Nc1ccccc1C(=O)NCCN(CC)CC`, the TGI with DLD-1 colon was above 100 µM; in the assay with DMS 114 small cell lung it was 79.7 µM; in the assay with DMS 273 small cell lung, above 100 µM; in the assay with M19-MEL melanoma it was 57.5 µM; in the assay with RXF-631 renal it was above 100 µM; with SNB-78 CNS, above 100 µM.

Take `COc1ccc(/C=C2\CN(C)Cc3c2nc(N)nc3-c2ccc(OC)cc2)cc1`: the TGI in the assay on DLD-1 colon, in the assay with DMS 114 small cell lung, in the assay with DMS 273 small cell lung, with LXFL 529 NSCLC, in the assay on M19-MEL melanoma and in the assay with SNB-78 CNS was above 100 µM each time. For the same molecule, in the assay on XF 498 CNS, the TGI is above 100 µM.

In the case of `O=C(O)CCCl`, the TGI with DLD-1 colon, in the assay with DMS 273 small cell lung, in the assay with LXFL 529 NSCLC, in the assay with M19-MEL melanoma and with SNB-78 CNS was above 5000 µM throughout.

As for `O=C(CSc1nnc(-c2ccc(N=Cc3ccc(Cl)cc3)cc2)o1)Nc1ccccc1Cl`, the TGI in the assay with DMS 114 small cell lung, in the assay on DMS 273 small cell lung, with LXFL 529 NSCLC, in the assay on M19-MEL melanoma, in the assay on SNB-78 CNS and in the assay with XF 498 CNS was above 100 µM each time.

For the molecule `O=C(Nc1c(O)[nH]c(=S)[nH]c1=O)c1ccccn1`, the TGI in the assay on DLD-1 colon, in the assay with DMS 114 small cell lung, in the assay on LXFL 529 NSCLC, in the assay on M19-MEL melanoma, in the assay on RXF-631 renal and in the assay with SNB-78 CNS was above 100 µM throughout.

Take `C1OCC2S[C@@H]3COCO[C@@H]3C2O1` (stereo partly specified): the TGI with DLD-1 colon, in the assay on DMS 114 small cell lung, in the assay with DMS 273 small cell lung, in the assay on LXFL 529 NSCLC, in the assay on M19-MEL melanoma and with SNB-78 CNS was above 100 µM each time. For the same molecule, the TGI in the assay on XF 498 CNS was above 100 µM.

`S=c1sc2c(Cl)ncnc2n1-c1ccccc1`: the TGI came to 24.2 µM in the assay on DLD-1 colon; 28.1 µM in the assay with DMS 114 small cell lung; 2.83 µM in the assay with DMS 273 small cell lung; 24.9 µM with LXFL 529 NSCLC; 13.1 µM in the assay with M19-MEL melanoma; 33.4 µM in the assay with SNB-78 CNS. The TGI with XF 498 CNS came to 28.7 µM.

On to `C=C1C(=O)OC2/C=C(\C)C(OC(C)=O)C3OC3C(C)(O)CC(OC(=O)/C(C)=C/C)C12` (stereo unspecified), for which the TGI with DMS 114 small cell lung stood at 20 µM; in the assay on DMS 273 small cell lung, 60 µM; in the assay with LXFL 529 NSCLC, 10.1 µM; with M19-MEL melanoma, 22.3 µM; with SNB-78 CNS, 30.5 µM; in the assay with XF 498 CNS it was 18.2 µM.

With `CCC1(O)CC(OC2CC(N(C)C)C(OC3CC4OC5CC(=O)C(C)OC5OC4C(C)O3)C(C)O2)c2c(cc3c(c2O)C(=O)c2c(O)ccc(O)c2C3=O)C1C(=O)OC` (stereo unspecified), the GI50 was 0.00984 µM in the assay with DLD-1 colon; 0.0075 µM with DMS 273 small cell lung; 0.0075 µM with P388 leukemia; 0.0075 µM in the assay on P388/ADR leukemia; 0.00862 µM in the assay on SN12K1 renal; 0.0126 µM with SNB-78 CNS. In addition, the GI50 with XF 498 CNS was 0.00256 µM. Moreover, the TGI with DLD-1 colon is 0.69 µM and 0.13 µM; with DMS 114 small cell lung, 0.0431 µM and 0.0473 µM; in the assay on DMS 273 small cell lung, 0.0342 µM and 0.0217 µM; with LXFL 529 NSCLC, 1.18 µM; in the assay with M19-MEL melanoma, 0.0705 µM and 0.0241 µM; in the assay with P388 leukemia, 0.00422 µM and 0.00817 µM. Further, the TGI is 0.008 µM and < 0.0451 µM in the assay on P388/ADR leukemia; 0.0369 µM and 0.0325 µM in the assay with SN12K1 renal; 0.854 µM and 0.536 µM with SNB-78 CNS; 0.0199 µM and 0.0103 µM in the assay with XF 498 CNS.
